Non-standard residues stand in square brackets, D forms with d. Residues, ends and D or L forms follow the SMILES beside them. No end group written: not given here. *: point of attachment. NMeR = CN[C@@H](CCCNC(=N)N)C(=O)O; Tle = CC(C)(C)[C@H](N)C(=O)O; X1 = C[C@@H](CCCCCN)C(=O)*

This is an account of results in US20120142601A1, “Modified Peptides and Uses Thereof” (MUSC Foundation for Research Development, priority 2009, published 2012).

The nature of one series: Catalepsy (bar test). Particulars: 5 mg/kg.
The conditions of series [1]: rat, in vivo.
Experimental: (§1) In laboratory tests, catalepsy is characterized by the inability of an animal to correct its position after placement in an unnatural posture. Catalepsy tests may be greatly influenced by a number of variables. These include stress-induced inhibition of catalepsy caused by a new environment and the contribution of learned “pseudo-catalepsy” that may result upon repeated measures with the same animal. To circumvent these potential confounding factors, tests are performed on an animal only once in a quiet, controlled environment,
(§2) Finally, the bar test was utilized to measure catalepsy as a predictor of EPSEs in humans.
A short description of series [2]: Hypothermia studies in the male Sprague-Dawley rat with various compounds. Conditions: dose 1 mg/kg in saline. Format: in vivo. The procedure: Hypothermia studies in the male Sprague-Dawley rat were conducted using different compounds (dosed in saline) and the results are summarized in Table 1. For each compound, the maximum decrease in temperature (Δtemp) and the area under the curve for hypothermia versus a saline control (AUC) were measured.

The target of a further series is NTR1 (Homo sapiens, UniProt P30989). Conditions: cited from earlier work.
For series [3] the following is noted: cited from earlier work.
The conditions of series [4]: in vivo; cited from earlier work.

NTR1, sequence (P30989 whole entry, species assumed): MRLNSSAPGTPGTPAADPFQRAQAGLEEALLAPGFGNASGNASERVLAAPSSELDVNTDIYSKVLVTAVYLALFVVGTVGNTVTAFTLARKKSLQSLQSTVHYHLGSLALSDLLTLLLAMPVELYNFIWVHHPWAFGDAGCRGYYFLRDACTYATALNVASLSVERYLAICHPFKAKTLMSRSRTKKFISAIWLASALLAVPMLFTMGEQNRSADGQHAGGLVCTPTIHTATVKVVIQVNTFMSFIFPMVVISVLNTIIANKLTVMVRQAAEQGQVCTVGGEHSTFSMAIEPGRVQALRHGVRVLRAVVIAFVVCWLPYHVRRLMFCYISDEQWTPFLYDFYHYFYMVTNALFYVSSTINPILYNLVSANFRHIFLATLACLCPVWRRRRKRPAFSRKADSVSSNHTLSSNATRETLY
Experimental for Catalepsy (bar test): as §1, §2

Regarding `CC(C)C[C@H](NC(=O)[C@@H](NC(=O)[C@H](Cc1ccc(O)cc1)NC(=O)[C@@H]1CCCN1C(=O)[C@H](CCCNC(=N)N)NC(=O)[C@@H](C)CCCCCN)C(C)(C)C)C(=O)O` [ABS-201] (X1-RPY[Tle]L-OH), in “Catalepsy (bar test)”, the “catalepsy after peripheral administration” value was “does not induce catalepsy”.
`O=C(CCCN1CCC(O)(c2ccc(Cl)cc2)CC1)c1ccc(F)cc1` [Haloperidol]: in series [1], the “duration of induced catalepsy” value was “greater than 30 sec”.
Turning to “N-Me-L-Arg-L-Lys-L-Pro-L-Trp-t-Leu-L-Leu ([NMeR]KPW[Tle]L) [SEQ ID NO:2, reference compound]”, in series [2], the “AUC (area under the curve for hypothermia versus saline control)” value stood at 700 and the “Δtemp (maximum decrease in temperature)” value is recorded as −4.2. Besides, in the series with NTR1, the “loss of binding affinity at NTR1” value was 700 fold. Also, the “central activity after oral administration” value in series [3] (oral) is “not able to elicit central activity”.
As to “N-Me-L-Arg-L-Lys-L-Pro-L-neoTyr-t-Leu-L-Leu [NT69L]”, the “hyperactivity induced by cocaine and d-amphetamine” value in series [4] is “attenuated hyperactivity”. Further, the Kd (as a rule, the concentration at which binding is half-saturated) at NTR1 was 1.55 nM. In addition, the hypothermic effect in series [3] (1 mg/kg injection, 90 min post-injection) is −5.3 °C. The “effect of chronic administration on hypothermic effect” value in series [3] (chronic administration) is listed as “tolerance to its hypothermic effect”. Also, the “hypothermic response after oral administration” value in series [3] (oral) is given as “only a slight hypothermic response”.
